Drawing on patent publication US9475802B2, “Inhibitors of viral replication, their process of preparation and their therapeutical uses” (LABORATOIRE BIODIM, priority 2012, dated 2016), this text covers EC50 for 24 compounds.

The subject of the experiment is NL4-3 strain of HIV-1. The experiment can be described thus: Inhibition of HIV replication: cyto-protection in Cell-Titer-Glo viability assay, MT4 cells infected with NL4-3 virus. Format: cell-based. The note with it: Human immunodeficiency virus 1, NL43, 120 h, concentration leading to 50% of cyto-protection, 5 days incubation, CellTiter-Glo luminescence. On the procedure: The antiviral activity, particularly against HIV, of compounds according to the invention is evaluated by the protocol described below.
Preparation of Virus Stock of the NL4-3 Strain of HIV-1 (Adachi et al, J Virol, 1986, 59(2):284-91).
The virus was prepared as described in Lopez et al (Lopez et al, Proc Natl Acad Sci USA., 2006, 103(40):14947-52, by transfecting 2×10^6 293 T cells (CRL-1573, ATCC) with following modifications: 6 μg of NL4-3 proviral DNA molecular clone were mixed with Fugene 6 transfection reagent from Roche, and used according to manufacturer's instructions. Forty eight hours later, transfected cell supernatants were harvested, filtered through 0.45-μm-pore-size filters, quantified for HIV-1 p24 antigen by using a Innotest HIV antigen mAb assay (Ingen) according to manufacturer's instructions, and used in infection experiments.
Serial dilutions of compounds to be tested were prepared in complete RPMI medium from 10 mM DMSO stock solutions, and distributed in a volume of 20 μL in 96 well Falcon 353072 Microtest™ tissue culture plate, in order to get 0.5% DMSO final concentration in each well, after the addition of infected cells. Control wells contained also 0.5% DMSO final concentration but no compound.
MT^4 cells (from the NIH AIDS Research and Reference Reagent Program) in RPMI complete medium were counted (10×10^6 cells per well in Falcon 353047 Multiwell™ 24 well) and infected for 2 hours at 37°, at a multiplicity of infection (moi) of 0.0001-0.00001. Cells were then centrifuged 3 min at 3000 rpm, and washed two times in 1 ml PBS to remove viruses that have not entered in cells. Infected cells were resuspended in complete RPMI at 1.25×10^6 cells/ml, and 80 μl of infected cells were distributed in each well containing compounds to be tested or control wells. The plates were then incubated at 37° for 5 days.
Assay Used to Measure the Inhibition of HIV Replication by the Compounds (According to (According to Gregg S. Jones et al., Antimicrobial Agents and Chemotherapy, 2009, 53 (3): 1194-1203).
After 5 days of incubation, 50 μl of CellTiter-Glo reagent (Promega Biosciences, Inc., Madison Wis., USA) were added to each well. Cell lysis was carried out at room temperature during 10 min, 150 μl of lysates were transferred in Packard Optiplate 96 well, and luminescence was read on a Fluoroskan (Thermo Scientific).
The EC50, or effective concentration 50, is the concentration of compound leading to 50% of cyto-protection in a Cell-Titer-Glo® viability assay based on MT^4 cells infected with NL4-3 virus (table 1).
For orientation: In ATP-based viability assays light output follows the ATP content of the culture.
Take `CC(C)(C)OC(C(=O)O)c1c(C(F)(F)F)ccc(-c2ccccc2)c1-c1ccc2c(c1)CCCO2` (stereo not drawn) [Example 1, 2-(tert-butoxy)-2-[2-(3,4-dihydro-2H-1-benzopyran-6-yl)-3-phenyl-6-(trifluoromethyl)phenyl]acetic acid]: the EC50 was 260 nM. As to `CC(C)(C)OC(C(=O)O)c1c(C(F)(F)F)ccc(-c2ccncc2)c1-c1ccc2c(c1)CCCO2` (stereo not drawn) [Example 2, 2-(tert-butoxy)-2-[2-(3,4-dihydro-2H-1-benzopyran-6-yl)-3-(pyridin-4-yl)-6-(trifluoromethyl)phenyl]acetic acid], the midpoint of the response, the EC50, lay at 250 nM. `CC(C)(C)OC(C(=O)O)c1c(C(F)(F)F)ccc(C2=CCCC2)c1-c1ccc2c(c1)CCCO2` (stereo not drawn) [Example 3, 2-(tert-butoxy)-2-[3-(cyclopent-1-en-1-yl)-2-(3,4-dihydro-2H-1-benzopyran-6-yl)-6-(trifluoromethyl)phenyl]acetic acid] registered an EC50 of 400 nM. With `Cn1cc(-c2ccc(C(F)(F)F)c(C(OC(C)(C)C)C(=O)O)c2-c2ccc3c(c2)CCCO3)cn1` (stereo not drawn) [Example 4, 2-(tert-butoxy)-2-[2-(3,4-dihydro-2H-1-benzopyran-6-yl)-3-(1-methyl-1H-pyrazol-4-yl)-6-(trifluoromethyl)phenyl]acetic acid], the midpoint of the response, the EC50, lay at 120 nM.

Compound `CC(C)(C)OC(C(=O)O)c1c(C(F)(F)F)ccc(-n2ccc(-c3ccccc3)n2)c1-c1ccc2c(c1)CCCO2` (stereo not drawn) [Example 5, 2-(tert-butoxy)-2-[2-(3,4-dihydro-2H-1-benzopyran-6-yl)-3-(3-phenyl-1H-pyrazol-1-yl)-6-(trifluoromethyl)phenyl]acetic acid] gave an EC50 of 760 nM. As for `CC(C)(C)OC(C(=O)O)c1c(C(F)(F)F)ccc(-c2ccnc(OCc3ccccc3)c2)c1-c1ccc2c(c1)CCCO2` (stereo not drawn) [Example 6, 2-{3-[2-(benzyloxy)pyridin-4-yl]-2-(3,4-dihydro-2H-1-benzopyran-6-yl)-6-(trifluoromethyl)phenyl}-2-(tert-butoxy)acetic acid], the midpoint of the response, the EC50, lay at 260 nM. As for `CC(C)(C)OC(C(=O)O)c1c(C(F)(F)F)ccc(-c2cccs2)c1-c1ccc2c(c1)CCCO2` (stereo not drawn) [Example 7, 2-(tert-butoxy)-2-[2-(3,4-dihydro-2H-1-benzopyran-6-yl)-3-(thiophen-2-yl)-6-(trifluoromethyl)phenyl]acetic acid], a half-maximal effect (EC50) was put at 300 nM. As for `COc1ccc(-c2ccc(C(F)(F)F)c(C(OC(C)(C)C)C(=O)O)c2-c2ccc3c(c2)CCCO3)cc1` (stereo not drawn) [Example 8, 2-(tert-butoxy)-2-[2-(3,4-dihydro-2H-1-benzopyran-6-yl)-3-(4-methoxyphenyl)-6-(trifluoromethyl)phenyl]acetic acid], the figure is 240 nM; as for `CC(C)(C)OC(C(=O)O)c1c(C(F)(F)F)ccc(-n2cc(Br)cn2)c1-c1ccc2c(c1)CCCO2` (stereo not drawn) [Example 9, 2-[3-(4-bromo-1H-pyrazol-1-yl)-2-(3,4-dihydro-2H-1-benzopyran-6-yl)-6-(trifluoromethyl)phenyl]-2-(tert-butoxy)acetic acid], 360 nM. Take `CC(C)(C)OC(C(=O)O)c1c(C(F)(F)F)ccc(-n2cc(Cl)cn2)c1-c1ccc2c(c1)CCCO2` (stereo not drawn) [Example 10, 2-[3-(4-chloro-1H-pyrazol-1-yl)-2-(3,4-dihydro-2H-1-benzopyran-6-yl)-6-(trifluoromethyl)phenyl]-2-(tert-butoxy)acetic acid]: the EC50 was found to be 480 nM. As for `CC1(C)CC=C(c2c(-c3ccncc3)ccc(C(F)(F)F)c2C(OC(C)(C)C)C(=O)O)CC1` (stereo not drawn) [Example 11, 2-(tert-butoxy)-2-[2-(4,4-dimethylcyclohex-1-en-1-yl)-3-(pyridin-4-yl)-6-(trifluoromethyl)phenyl]acetic acid], the figure is 910 nM. As for `CC(C)(C)OC(C(=O)O)c1c(C(F)(F)F)ccc(-c2cnn3ccccc23)c1-c1ccc2c(c1)CCCO2` (stereo not drawn) [Example 12, 2-(tert-butoxy)-2-[2-(3,4-dihydro-2H-1-benzopyran-6-yl)-3-{pyrazolo[1,5-a]pyridin-3-yl}-6-(trifluoromethyl)phenyl]acetic acid], the figure is 420 nM; as for `CC(C)(C)OC(C(=O)O)c1c(C(F)(F)F)ccc(-c2ccc(C(N)=O)cc2)c1-c1ccc2c(c1)CCCO2` (stereo not drawn) [Example 13, 2-(tert-butoxy)-2-[3-(4-carbamoylphenyl)-2-(3,4-dihydro-2H-1-benzopyran-6-yl)-6-(trifluoromethyl)phenyl]acetic acid], 830 nM; as for `CC(C)(C)OC(C(=O)O)c1c(C(F)(F)F)ccc(-c2cccc(C(N)=O)c2)c1-c1ccc2c(c1)CCCO2` (stereo not drawn) [Example 14, 2-(tert-butoxy)-2-[3-(3-carbamoylphenyl)-2-(3,4-dihydro-2H-1-benzopyran-6-yl)-6-(trifluoromethyl)phenyl]acetic acid], 780 nM. As for `Cn1cc(-c2ccc(C(F)(F)F)c(C(OC(C)(C)C)C(=O)O)c2C2=CCC(C)(C)CC2)cn1` (stereo not drawn) [Example 15, 2-(tert-butoxy)-2-[2-(4,4-dimethylcyclohex-1-en-1-yl)-3-(1-methyl-1H-pyrazol-4-yl)-6-(trifluoromethyl)phenyl]acetic acid], the response was half-maximal at 150 nM (EC50). For the compound `CC(C)(C)OC(C(=O)O)c1c(C(F)(F)F)ccc(-c2ccncn2)c1-c1ccc2c(c1)CCCO2` (stereo not drawn) [Example 16, 2-(tert-butoxy)-2-[2-(3,4-dihydro-2H-1-benzopyran-6-yl)-3-(pyrimidin-4-yl)-6-(trifluoromethyl)phenyl]acetic acid], a half-maximal response (EC50) required 940 nM. With `CC(C)(C)OC(C(=O)O)c1c(C(F)(F)F)ccc(-c2ccncc2F)c1-c1ccc2c(c1)CCCO2` (stereo not drawn) [Example 17, 2-(tert-butoxy)-2-[2-(3,4-dihydro-2H-1-benzopyran-6-yl)-3-(3-fluoropyridin-4-yl)-6-(trifluoromethyl)phenyl]acetic acid], the EC50 came out at 250 nM.

On to `CNC(=O)c1ccc(-c2ccc(C(F)(F)F)c(C(OC(C)(C)C)C(=O)O)c2-c2ccc3c(c2)CCCO3)cc1` (stereo not drawn) [Example 19, 2-(tert-butoxy)-2-[2-(3,4-dihydro-2H-1-benzopyran-6-yl)-3-[4-(methylcarbamoyl)phenyl]-6-(trifluoromethyl)phenyl]acetic acid], for which the EC50 amounted to 330 nM. This EC50 and that of the compound before are within 1.5-fold of each other. In the case of `CC(C)(C)OC(C(=O)O)c1c(C(F)(F)F)ccc(-c2ccc(N)cc2)c1-c1ccc2c(c1)CCCO2` (stereo not drawn) [Example 20, 2-[3-(4-aminophenyl)-2-(3,4-dihydro-2H-1-benzopyran-6-yl)-6-(trifluoromethyl)phenyl]-2-(tert-butoxy)acetic acid], the response was half-maximal at 150 nM (EC50). Take `CC(=O)Nc1ccc(-c2ccc(C(F)(F)F)c(C(OC(C)(C)C)C(=O)O)c2-c2ccc3c(c2)CCCO3)cc1` (stereo not drawn) [Example 21, 2-(tert-butoxy)-2-[3-(4-acetamidophenyl)-2-(3,4-dihydro-2H-1-benzopyran-6-yl)-6-(trifluoromethyl)phenyl]acetic acid]: the EC50 turned out to be 170 nM.

Consider `CC(C)(C)OC(C(=O)O)c1c(C(F)(F)F)ccc(-c2cnn(CC(F)(F)F)c2)c1-c1ccc2c(c1)CCCO2` (stereo not drawn) [Example 22, 2-(tert-butoxy)-2-{2-(3,4-dihydro-2H-1-benzopyran-6-yl)-3-[1-(2,2,2-trifluoroethyl)-1H-pyrazol-4-yl]-6-(trifluoromethyl)phenyl}acetic acid], for which the EC50 came out at 320 nM. As for `CC(C)(C)OC(C(=O)O)c1c(C(F)(F)F)ccc(-c2cccc(N)c2)c1-c1ccc2c(c1)CCCO2` (stereo not drawn) [Example 23, 2-[3-(3-aminophenyl)-2-(3,4-dihydro-2H-1-benzopyran-6-yl)-6-(trifluoromethyl)phenyl]-2-(tert-butoxy)acetic acid], the EC50 amounted to 190 nM.

As to `CC(=O)Nc1cccc(-c2ccc(C(F)(F)F)c(C(OC(C)(C)C)C(=O)O)c2-c2ccc3c(c2)CCCO3)c1` (stereo not drawn) [Example 24, 2-(tert-butoxy)-2-[3-(3-acetamidophenyl)-2-(3,4-dihydro-2H-1-benzopyran-6-yl)-6-(trifluoromethyl)phenyl]acetic acid], it took 290 nM to reach a half-maximal effect (EC50). `CCCn1cc(-c2ccc(C(F)(F)F)c(C(OC(C)(C)C)C(=O)O)c2-c2ccc3c(c2)CCCO3)ccc1=O` (stereo not drawn) [Example 25, 2-(tert-butoxy)-2-[2-(3,4-dihydro-2H-1-benzopyran-6-yl)-3-(6-oxo-1-propyl-1,6-dihydropyridin-3-yl)-6-(trifluoromethyl)phenyl]acetic acid] gave an EC50 of 220 nM.

For orientation: EC50 means the concentration giving half of the maximal effect. The low end stands for an effect from little substance, the high end for a need for much substance.
